Laboratory results: patent publication EP0371438B1, “3,5-Di-tertiary-butyl-4-hydroxyphenyl-1,3,4-thiadiazoles, and oxadiazoles and 3,5-di-tertiary-butyl-4-hydroxiphenyl- 1,2,4-thiadiazoles, -oxadiazoles as antiinflammatory agents” (WARNER-LAMBERT COMPANY, priority 1988, dated 1990)
pIC50: −log10 of the molar value.

Key:
5-lipoxygenase = biological target: T1, 5-lipoxygenase (Rattus norvegicus, UniProt P12527); assay: ARBL whole cell 5-lipoxygenase assay (LTB4 formation, RIA); format: cell-based; conditions: IC50 for LTB4 inhibition; RBL-1 cells, calcium ionophore A23187
T1 construct: host or cells: RBL-1 (rat basophilic leukemia)
T1 sequence (P12527 1-673): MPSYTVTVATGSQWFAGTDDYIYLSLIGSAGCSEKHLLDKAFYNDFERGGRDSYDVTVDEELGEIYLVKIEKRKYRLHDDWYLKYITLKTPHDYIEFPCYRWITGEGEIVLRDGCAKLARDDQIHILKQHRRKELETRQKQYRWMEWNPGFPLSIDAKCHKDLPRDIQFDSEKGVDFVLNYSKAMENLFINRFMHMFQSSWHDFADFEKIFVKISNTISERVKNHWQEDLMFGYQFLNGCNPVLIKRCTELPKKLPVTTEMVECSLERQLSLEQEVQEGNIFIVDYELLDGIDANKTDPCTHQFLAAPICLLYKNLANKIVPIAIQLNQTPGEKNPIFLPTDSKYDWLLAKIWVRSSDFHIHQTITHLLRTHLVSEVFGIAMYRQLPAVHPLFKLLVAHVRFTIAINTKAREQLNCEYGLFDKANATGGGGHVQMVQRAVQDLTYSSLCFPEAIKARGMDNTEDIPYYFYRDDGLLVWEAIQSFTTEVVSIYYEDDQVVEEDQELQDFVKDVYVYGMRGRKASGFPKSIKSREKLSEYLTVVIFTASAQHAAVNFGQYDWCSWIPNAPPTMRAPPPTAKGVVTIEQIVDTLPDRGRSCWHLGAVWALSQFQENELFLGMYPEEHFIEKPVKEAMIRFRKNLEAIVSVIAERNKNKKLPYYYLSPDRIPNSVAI
Experimental: (§1) ARBL/ARBC Whole Cell 5-Lipoxygenase and Cyclooxygenase Assays
(§2) The rat basophilic leukemia cell line (RBL-1) was obtained from the American Type Culture Collection (Rockville, MD).
(§3) Radioimmunoassay (RIA) kits of LTB₄ and [drawing 16] were obtained from Amersham (Arlington Heights, IL) and Seragen (Boston, MA), respectively.
(§4) RBL-1 cells are grown in suspension culture in Eagle's minimum essential medium supplemented with 12% fetal bovine serum at 37°C in an incubator supplied with air-5% carbon dioxide. Cells are harvested by centrifugation. They are washed with cold phosphate buffered saline pH 7.4 (PBS; NaCl, 7.1 g; Na₂HPO₄, 1.15 g; KH₂PO₄, 0.2 g; and KCl, 0.2 g/l). Cells are finally suspended in PBS containing 1.0 mM calcium at a density of 2x10⁶ cells/ml. Cells are incubated with and without test agent (in DMSO) (1% DMSO is without effect on arachidonic acid metabolism) for ten minutes at room temperature. Calcium ionophore A23187 (5 »M) is added and cells are incubated for seven minutes at 37°C. The reaction is stopped by chilling the tubes on ice for ten minutes. Cells are separated by centrifugation and the supernatant is stored at -20°. Aliquots (100 »l) are analyzed for LTB₄ and [drawing 17] using radioimmunoassay kits as provided by the supplier.
(§5) Table 1 contains biochemical data obtained from this whole cell assay as IC₅₀s which are calculated as the amount of test compound causing 50% inhibition of LTB₄ or [drawing 18] formation.

cyclooxygenase = assay: ARBC whole cell cyclooxygenase assay (PGF2α formation, RIA); format: cell-based, rat; conditions: IC50 for PGF2α inhibition; RBL-1 cells, calcium ionophore A23187
Experimental: as §1, §2, §3, §4, §5

gastric ulcers = assay: Gastric ulcerogenicity (UD); format: in vivo, Male outbred Wistar rats; conditions: PO, dose which produces a 50% occurrence of ulcers in rats; result given @ 200; compound tested as its sodium salt
Experimental: Gastric Ulcerogenicity (UD): Protocol
Male outbred Wistar rats (100-250 gms) are fasted for 24 hours. After fasting, test compounds are administered orally (in 2 ml/kg of 0.5% hydroxypropyl methylcellulose) and the rats are denied access to food and water for six more hours. The rats are then sacrificed with CO₂ so that the stomachs can be removed, opened along the greater curvature, and evaluated for the presence of gastric ulcers. Results are expressed as the percent of rats with gastric ulcers at a given dose or as the UD₅₀ (the dose which causes ulcers in 50% of the rats).

[1] = tested on: Mycobacterium - Induced Rat Footpad Edema; assay: Mycobacterium-induced rat footpad edema assay (MFE); format: in vivo; conditions: PO, swelling 72 hours after injection, compound tested as its sodium salt, read-out: MFE ID₄₀
Experimental: Mycobacterium - Induced Rat Footpad Edema Assay (MFE): Protocol Mycobacterium butyricum (5 mg/ml) is suspended in paraffin oil by sonication for ten minutes in an ice bath. Footpad edema is induced on Day 0 by injecting 0.1 ml of the Mycobacterium mixture into the left hindpaw of lightly anesthetized rats. Swelling in the injected hindpaw is determined by mercury plethysmography 72 hours after injection. Groups of rats are treated with test compounds (suspended in 0.5% hydroxypropyl methylcellulose with 0.2% Tween-80) or vehicle one hour before Mycobacterium injection and on Days 1 and 2. Inhibition of swelling is determined by comparing the change in hindpaw volume in compound-and vehicle-treated rats. An ID₄₀ (the dose at which swelling is inhibited by 40%) is calculated by probit analysis.

[2] = tested on: Carrageenan-Induced Rat Foot Paw Edema; assay: Carrageenan-induced rat foot paw edema-2 (CFE-2) assay; format: in vivo; conditions: 5 h, PO, dosed one hour before carrageenan, edema measured five hours after, compound tested as its sodium salt, read-out: CFE-2 ID₄₀
Experimental: Carrageenan-Induced Rat Foot Paw Edema-2 (CFE-2) Assay: Protocol
Carrageenan solution (1% w/v) is prepared by dissolving 100 mg carrageenan (Marine Colloidal Div., Springfield, NJ) in 10 ml of sterile saline (0.9%) solution (Travenol). The solution is vortexed for 30 to 45 minutes. Animals are dosed with compound one hour before carrageenan challenge. Foot paw edema is induced by injecting 0.10 ml of the 1% carrageenan subcutaneously into the plantar portion of the right hind paw of each rat under light anesthesia. Initial foot paw volume is measured immediately following carrageenan challenge using mercury plethysmography (Buxco Electronics). Edema is measured five hours after carrageenan. The difference between the five-hour and the initial paw volume is expressed as delta edema. The delta edema for each test group of animals is used to calculate the percent inhibition of edema achieved by the compound at the test dose compared with the vehicle control group. The ID₄₀ (the dose at which swelling is inhibited by 40%) is calculated by probit analysis for the dose at which 40 percent inhibition occurs.

| SMILES | pIC50 (5-lipoxygenase) | pIC50 (cyclooxygenase) | UD₅₀ (gastric ulcers) | ED40 [1] | ED40 [2] |
| --- | --- | --- | --- | --- | --- |
| CC(C)(C)c1cc(-c2n[nH]c(=O)[nH]2)cc(C(C)(C)C)c1O [Example 15, 5-[3,5-Bis(1,1-dimethylethyl)-4-hydroxyphenyl]-2,4-dihydro-3H-1,2,4-triazol-3-one] | 5.35 | 5.26 |  |  |  |
| CC(C)(C)c1cc(-c2n[nH]c(=S)o2)cc(C(C)(C)C)c1O [Example 8, 5-[3,5-Bis(1,1-dimethylethyl)-4-hydroxyphenyl]-1,3,4-oxadiazole-2(3H)-thione] | 5.00 | 5.10 |  |  |  |
| CC(C)(C)c1cc(-c2n[nH]c(=O)o2)cc(C(C)(C)C)c1O [Example 7, 5-[3,5-Bis(1,1-dimethylethyl)-4-hydroxyphenyl]-1,3,4-oxadiazol-2(3H)-one] | 5.85 | 5.60 |  |  |  |

More lines, main results first:

| pIC50 (5-lipoxygenase) | pIC50 (cyclooxygenase) | SMILES | UD₅₀ (gastric ulcers) | ED40 [1] | ED40 [2] |
| --- | --- | --- | --- | --- | --- |
| 5.85 | 6.89 | CC(C)(C)c1cc(-c2nnc(N)s2)cc(C(C)(C)C)c1O [Example 10, 4-(5-Amino-1,3,4-thiadiazol-2-yl)-2,6-bis(1,1-dimethylethyl)phenol] |  |  |  |
| 5.24 | 6.07 | CC(C)(C)c1cc(-c2nnc(S)s2)cc(C(C)(C)C)c1O [Example 4, 5-[3,5-Bis(1,1-dimethylethyl)-4-hydroxyphenyl]-1,3,4-thiadiazole-2(3H)-thione] | N @ 200 (N is 0% of rats having ulcers at 200 mg.) | 3.2 mg/kg | 1.9 mg/kg |
